# Data as given in patent publication US4012382A, “α-Amino and α-formyl-α-(p-acyloxyphenyl)acetamidocephalosporanic acid derivatives” (priority 1974, dated 1977).
# Legend:
# [1] = tested on: D. pneumoniae A9585; assay: MIC, 2-fold broth dilution, D. pneumoniae A9585; format: cell-based; conditions: Streptococcus pneumoniae, 10-3 dilution of overnite broth culture, 45% AAB + 5% serum + 50% NB
# Experimental: (§1) *45% AAB + 5% serum + 50% NB
# (§2) **Dilution of overnite broth culture
# (§3) Minimal inhibitory concentrations were determined by the 2-fold broth dilution method utilizing equimolar concentrations of each compound.
# [2] = tested on: Str. pyogenes A9604; assay: MIC, 2-fold broth dilution, Str. pyogenes A9604; format: cell-based; conditions: Streptococcus pyogenes, 10-3 dilution of overnite broth culture, 45% AAB + 5% serum + 50% NB
# Experimental: as §1, §2, §3
# [3] = tested on: S. aureus Smith A9537; assay: MIC, 2-fold broth dilution, S. aureus Smith A9537; format: cell-based; conditions: Staphylococcus aureus, SMITHA9537, Nutrient Broth, 10-4
# Experimental: as §3
# [4] = tested on: S. aureus BX1633 A9606; assay: MIC, 2-fold broth dilution, S. aureus BX1633 A9606; format: cell-based; conditions: Staphylococcus aureus, BX1633A9606, Nutrient Broth
# Experimental: as §3
# [5] = tested on: S. aureus Meth-Res A15097; assay: MIC, 2-fold broth dilution, S. aureus Meth-Res A15097; format: cell-based; conditions: Staphylococcus aureus; Nutrient Broth; 10-3
# Experimental: as §3
# [6] = tested on: Sal. enteritidis A9531; assay: MIC, 2-fold broth dilution, Sal. enteritidis A9531; format: cell-based; conditions: Salmonella enterica, Nutrient Broth, 10-4
# Experimental: as §3
# [7] = tested on: E. coli Juhl A15119; assay: MIC, 2-fold broth dilution, E. coli Juhl A15119; format: cell-based; conditions: Escherichia coli, JUHLA15119; Nutrient Broth; 10-4
# Experimental: as §3
# [8] = tested on: E. coli A9675; assay: MIC, 2-fold broth dilution, E. coli A9675; format: cell-based; conditions: Escherichia coli, Nutrient Broth, 10-4
# Experimental: as §3
# [9] = tested on: K. pneumoniae A9977; assay: MIC, 2-fold broth dilution, K. pneumoniae A9977; format: cell-based; conditions: Klebsiella pneumoniae, Nutrient Broth, 10-4
# Experimental: as §3
# [10] = tested on: K. pneumoniae A15130; assay: MIC, 2-fold broth dilution, K. pneumoniae A15130; format: cell-based; conditions: Klebsiella pneumoniae, Nutrient Broth, 10-4
# Experimental: as §3
# [11] = tested on: Pr. mirabilis A9900; assay: MIC, 2-fold broth dilution, Pr. mirabilis A9900; format: cell-based; conditions: Proteus mirabilis, Nutrient Broth, 10-4
# Experimental: as §3
# [12] = tested on: Pr. morganii A15153; assay: MIC, 2-fold broth dilution, Pr. morganii A15153; format: cell-based; conditions: Morganella morganii, Nutrient Broth, 10-4
# Experimental: as §3
# [13] = tested on: Ps. aeruginosa A9843A; assay: MIC, 2-fold broth dilution, Ps. aeruginosa A9843A; format: cell-based; conditions: Pseudomonas aeruginosa
# Experimental: as §3
# [14] = tested on: Ser. marcescens A20019; assay: MIC, 2-fold broth dilution, Ser. marcescens A20019; format: cell-based; conditions: Serratia marcescens, Nutrient Broth, 10-4
# Experimental: as §3
# [15] = tested on: Ent. cloacae A9656; assay: MIC, 2-fold broth dilution, Ent. cloacae A9656; format: cell-based; conditions: Enterobacter cloacae, Nutrient Broth, 10-4
# Experimental: as §3
# [16] = tested on: Ent. cloacae A9657; assay: MIC, 2-fold broth dilution, Ent. cloacae A9657; format: cell-based; conditions: Enterobacter cloacae, Nutrient Broth, 10-4
# Experimental: as §3
# [17] = tested on: Ent. cloacae A9659; assay: MIC, 2-fold broth dilution, Ent. cloacae A9659; format: cell-based; conditions: Enterobacter cloacae, Nutrient Broth, 10-4
# Experimental: as §3
# [18] = Hydrolysis in human serum (bioautographed paper chromatography); format: in vitro ADME
# Experimental: (§4) Solutions of 0.5 mg./ml. of 7-D-(-)α-amino-α-p(-acetoxyphenylacetamido)desacetoxycephalosporanic acid (p-acetoxycephalexin) in normal saline and in human serum were prepared. Standard solutions of 0.5 mg./ml. of 7-D-(-)α-amino-α-p(-hydroxyphenylacetamido)desacetoxycephalosporanic acid (p-hydroxycephalexin) were also prepared in both normal saline and human serum.
# (§5) All the above solutions were incubated at 37° C. with shaking and sampled for chromatography at time intervals of 0, 2, 4, 8 and 24 hours. The solutions, approximately 5 microliters per strip, were spotted on Whatman No. 1 half-inch strips which were dried and developed in a solvent system containing 80 parts butylacetate; 15 parts n-butanol; 40 parts acetic acid; and 24 parts water. The strips were then bioautographed on plates seeded with bacillus subtilis at a pH of 6.0.
# [19] = Stability in normal saline (bioautographed paper chromatography); format: physicochemical; conditions: 0.5 mg./ml. in normal saline, 37° C., sampled 0-24 hours
# Experimental: as §4, §5
SMILES,MIC [1] [µg/mL],MIC [2] [µg/mL],MIC [3] [µg/mL],MIC ([3]; + 50% serum) [µg/mL],MIC ([4]; 10-2) [µg/mL],MIC ([4]; 10-3) [µg/mL],MIC [5] [µg/mL],MIC [6] [µg/mL],MIC [7] [µg/mL],MIC [8] [µg/mL],MIC [9] [µg/mL],MIC [10] [µg/mL],MIC [11] [µg/mL],MIC [12] [µg/mL],MIC [13] [µg/mL],MIC [14] [µg/mL],MIC [15] [µg/mL],MIC [16] [µg/mL],MIC [17] [µg/mL],other results
"CC1=C(C(=O)O)N2C(=O)[C@@H](NC(=O)[C@H](N)c3ccc(O)cc3)[C@H]2SC1 [BL-S 578-4, 7-D-(-)α-amino-α-(p-hydroxyphenylacetamido)desacetoxycephalosporanic acid, reference compound]",0.6,0.08,1.3,1.3,2,2,16,8,16,32,16,32,8,> 125,> 125,> 125,> 125,16,> 125,–
"N[C@@H](C(=O)N[C@@H]1C(=O)N2C(C(=O)O)=C(CSc3c[nH]nn3)CS[C@H]12)c1ccc(O)cc1 [Bl-S640, reference compound]",0.04,0.04,0.3,1,1,0.6,4,0.6,0.5,4,0.5,1,0.5,63,125,125,125,0.5,32,–
"CC(=O)Oc1ccc([C@@H](N)C(=O)N[C@@H]2C(=O)N3C(C(=O)O)=C(C)CS[C@H]23)cc1 [RN 1394, 7-D(-)2-amino-2-(4-acetoxyphenylacetamido)desacetoxycephalosporanic acid]",0.08,0.08,0.6,0.6,2,1,32,8,32,63,16,32,8,> 125,> 125,> 125,> 125,8,> 125,"hydrolysis to the p-hydroxy form in human serum ([18]; 0.5 mg./ml. in human serum, 37° C., sampled 0-24 hours): quickly hydrolyzed to the p-hydroxy form; enzymatic hydrolysis to the p-hydroxy compound ([18]; enzymatic): hydrolyzed enzymatically; stability in normal saline ([19]; listed as 7-D-(-)α-amino-α-(p-acetoxyphenyl-acetamido)desacetoxycephalosporanic acid): stable in normal saline; stability in normal saline ([19]; listed as p-acetoxycephalexin): appears stable"
CC(=O)Oc1ccc([C@@H](N)C(=O)N[C@@H]2C(=O)N3C(C(=O)O)=C(CSc4c[nH]nn4)CS[C@H]23)cc1 [RN 1396],0.04,0.04,0.16,1,4,0.6,8,0.3,2,8,1,2,0.5,63,125,125,125,1,32,–
